Test results taken from patent publication US5785963A, “Polymeric hydantoin quaternary compounds, methods of making” (Lonza, Inc., priority 1996, dated 1998).

System: bovine corneas
Assay: BCOP (Bovine Corneal Opacity and Permeability) assay of ocular irritancy
Procedure: A BCOP (Bovine Corneal Opacity and Permeability) assay was carried out on polyhydantoin quat compounds of the invention using a test system developed by Gautheron et al.L, "Bovine Corneal Opacity and Permeability Test: An in Vitro Assay of Ocular Irritancy" Fundamental and Applied Toxicology, 18: 442-449 (1992). The system measures two important properties which are predictive of irritation: corneal opacity and permeability. The following classification system for in vitro scores was used:
from 25.1 to 55=moderate irritant
from 55.1 and above=severe irritant
Two polyhydantoin quaternary compounds, having formulas IV and V, were tested using known antimicrobial compositions, ethanol and a didecyl dimethyl ammonium chloride (Bardac 2250, Lonza Inc., Fair Lawn, N.J.), as controls. The test samples were prepared as 0.1% active solutions in distilled water.
In this test, bovine corneas (from slaughterhouse animals) were mounted between two tissue culture media reservoirs in holders which function both as treatment chambers and as cuvettes for subsequent direct measurement of corneal opacity. […]
After completion of the incubation period, the resultant damage was assessed both by quantitative measurement of opacity change, and by indirect measurement of corneal cell damage as evidenced by increased passage of fluorescein.

## CCO [Ethanol, ethanol]
  BCOP SCORE: 68.7
